Experimental data reported in the supplement of paper PMC11061612.

Experiments:
Assay in all cases: combination Emax (second highest fraction inhibited in the dose matrix, 72 h); higher = more inhibition; extreme values may be limits of the assay
[1] = test system: BHT-101 (Thyroid Gland Carcinoma)
Summary of the method: (§1)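 After 24 hours at 37°C and 5% CO2 in 1536-well plates, cells in DMEM/F12 or RPMI plus 10% FBS received two-drug dose matrices for 72 hours. Viability came from CellTiter-Glo 2.0 luminescence and was scaled as inhibition, anchored at 0 by vehicle wells and at 1 by blank wells. Combination Emax is taken as the second-highest inhibition in the matrix, and Bliss excess as the observed combination effect less EA + EB − EA·EB, with EA and EB the single-agent effects.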

[2] = test system: COR-L88 (Small Cell Lung Carcinoma)
Summary of the method: as §1

ES6 (Ewing's Sarcoma) = test system: ES6 (Ewing's Sarcoma)
Summary of the method: as §1

IST-MEL1 (Melanoma) = test system: IST-MEL1 (Melanoma)
Summary of the method: as §1

KALS-1 (Glioblastoma) = test system: KALS-1 (Glioblastoma)
Summary of the method: as §1

[3] = test system: MOLP-8 (Plasma Cell Myeloma)
Summary of the method: as §1

[4] = test system: MOLT-13 (T-Lymphoblastic Leukemia)
Summary of the method: as §1

[5] = test system: MONO-MAC-6 (Acute Myeloid Leukemia)
Summary of the method: as §1

[6] = test system: NAMALWA (Burkitt's Lymphoma)
Summary of the method: as §1

[7] = test system: NCI-H1963 (Small Cell Lung Carcinoma)
Summary of the method: as §1

NCI-H2373 (Mesothelioma) = test system: NCI-H2373 (Mesothelioma)
Summary of the method: as §1

[8] = test system: NMC-G1 (Low Grade Glioma)
Summary of the method: as §1

[9] = test system: P30-OHK (B-Lymphoblastic Leukemia)
Summary of the method: as §1

[10] = test system: P32-ISH (Burkitt's Lymphoma)
Summary of the method: as §1

[11] = test system: RCC-JW (Kidney Carcinoma)
Summary of the method: as §1

[12] = test system: SK-CO-1 (Colorectal Carcinoma)
Summary of the method: as §1

[13] = test system: SNU-407 (Colorectal Carcinoma)
Summary of the method: as §1

[14] = test system: TUR (Acute Myeloid Leukemia)
Summary of the method: as §1

WM35 (Melanoma) = test system: WM35 (Melanoma)
Summary of the method: as §1

[15] = test system: ZR-75-30 (Breast Carcinoma)
Summary of the method: as §1

Compound | combination Emax [1] | combination Emax [2] | combination Emax (ES6 (Ewing's Sarcoma)) | combination Emax (IST-MEL1 (Melanoma)) | combination Emax (KALS-1 (Glioblastoma)) | combination Emax [3] | combination Emax [4] | combination Emax [5] | combination Emax [6] | combination Emax [7] | combination Emax (NCI-H2373 (Mesothelioma)) | combination Emax [8] | combination Emax [9] | combination Emax [10] | combination Emax [11] | combination Emax [12] | combination Emax [13] | combination Emax [14] | combination Emax (WM35 (Melanoma)) | combination Emax [15]
CC1(C)CCC(CN2CCN(c3ccc(C(=O)NS(=O)(=O)c4ccc(NCC5CCOCC5)c([N+](=O)[O-])c4)c(Oc4cnc5[nH]ccc5c4)c3)CC2)=C(c2ccc(Cl)cc2)C1 [Venetoclax] + Cn1cnc2c(F)c(Nc3ccc(Br)cc3Cl)c(C(=O)NOCCO)cc21 [Selumetinib] (first compound max 1 µM, 7x7, partner max 3 µM) | 0.686 | 0.543 | 0.162 | 0.415 | 0.578 | 0.186 | 0.804 | 0.357 | 0.286 | 0.76 | 0.295 | 0.175 | 0.303 | 0.239 | 0.144 | 0.727 | 0.504 | 0.179 | 0.757 | 0.159
CC1(C)CCC(CN2CCN(c3ccc(C(=O)NS(=O)(=O)c4ccc(NCC5CCOCC5)c([N+](=O)[O-])c4)c(Oc4cnc5[nH]ccc5c4)c3)CC2)=C(c2ccc(Cl)cc2)C1 [Venetoclax] + C[C@@H](Nc1cc(F)cc(F)c1)c1cc(C(=O)N(C)C)cc2c(=O)cc(N3CCOCC3)oc12 [AZD8186] (first compound max 1 µM, 7x7, partner max 3 µM) | 0.272 | 0.617 | 0.198 | 0.336 | 0.741 | 0.455 | 0.431 | 0.808 | 0.428 | 0.758 | 0.216 | 0.171 | 0.794 | 0.341 | 0.293 | 0.187 | 0.142 | 0.209 | 0.0866 | 0.24
CCc1c2c(nc3ccc(O)cc13)-c1cc3c(c(=O)n1C2)COC(=O)[C@]3(O)CC [SN-38] + O=C(c1cc(Cc2n[nH]c(=O)c3ccccc23)ccc1F)N1CCN(C(=O)C2CC2)CC1 [Olaparib] (first compound max 0.3 µM, 7x7, partner max 10 µM) |  | 0.535 | 0.618 | 0.897 | 0.616 | 0.783 | 1 | 1 | 0.986 | 0.854 | 0.801 | 0.246 | 0.99 | 1 | 0.616 | 0.798 |  | 0.994 | 0.448 | 0.348
CC1(C)CCC(CN2CCN(c3ccc(C(=O)NS(=O)(=O)c4ccc(NCC5CCOCC5)c([N+](=O)[O-])c4)c(Oc4cnc5[nH]ccc5c4)c3)CC2)=C(c2ccc(Cl)cc2)C1 [Venetoclax] + COc1cc(Nc2ncc3c(n2)-c2ccc(Cl)cc2C(c2c(F)cccc2OC)=NC3)ccc1C(=O)O [Alisertib] (first compound max 1 µM, 7x7, partner max 10 µM) | 0.672 | 0.727 | 0.277 | 0.574 | 0.647 | 0.633 | 0.896 | 0.964 | 0.661 | 0.949 | 0.253 | 0.244 | 1 | 1 | 0.286 | 0.629 | 0.631 | 0.628 | 0.152 | 0.137
COc1cccc(OCCCN)c1-c1cc(Nc2cnc(C#N)cn2)n[nH]1 [Prexasertib] + CN(C)CCCOc1ccc(-c2ccc3ncc4c(c3c2)n(C2CCOCC2)c(=O)n4C)cn1 [AZD0156] (first compound max 1 µM, 7x7, partner max 1 µM) | 0.799 | 0.843 | 0.573 | 0.75 | 0.839 | 0.894 | 1 | 0.963 | 0.991 | 0.975 | 0.423 | 0.362 | 0.987 | 1 | 0.366 | 0.695 | 0.653 | 1 | 0.845 | 0.117
CN(CCO)CC[C@H](CSc1ccccc1)Nc1ccc(S(=O)(=O)NC(=O)c2ccc(N3CCC([C@@H](O)c4ccccc4-c4ccc(Cl)cc4)CC3)cc2)cc1S(=O)(=O)C(F)(F)F [AZD4320] + C=CCn1c(=O)c2cnc(Nc3ccc(N4CCN(C)CC4)cc3)nc2n1-c1cccc(C(C)(C)O)n1 [AZD1775] (first compound max 1 µM, partner max 1 µM) | 0.659 | 0.978 | 0.572 | 0.85 | 0.975 | 0.831 | 1 | 0.88 | 0.982 | 1 | 0.404 | 0.785 | 1 | 0.994 | 0.712 | 0.867 | 0.415 | 0.904 | 0.331 | 0.173
C[C@@H]1COCCN1c1cc(C2([S@](C)(=N)=O)CC2)nc(-c2ccnc3[nH]ccc23)n1 [AZD6738] + O=C(c1cc(Cc2n[nH]c(=O)c3ccccc23)ccc1F)N1CCN(C(=O)C2CC2)CC1 [Olaparib] (first compound max 10 µM, 7x7, partner max 10 µM) | 0.663 | 0.342 | 0.522 | 0.726 | 0.793 | 0.794 | 0.999 | 0.948 | 0.938 | 0.804 | 0.66 | 0.392 |  | 0.91 | 0.552 | 0.768 | 0.75 | 0.907 | 0.547 | 0.213
CN(CCO)CC[C@H](CSc1ccccc1)Nc1ccc(S(=O)(=O)NC(=O)c2ccc(N3CCC([C@@H](O)c4ccccc4-c4ccc(Cl)cc4)CC3)cc2)cc1S(=O)(=O)C(F)(F)F [AZD4320] + C1CN(CCC1(C(=O)N[C@@H](CCO)C2=CC=C(C=C2)Cl)N)C3=NC=NC4=C3C=CN4 [Capivasertib] (first compound max 1 µM, 7x7, partner max 3 µM) | 0.351 | 0.971 | 0.291 | 0.26 | 0.485 | 0.254 | 0.913 | 0.597 |  | 1 | 0.409 | 0.507 | 0.992 | 0.318 | 0.615 | 0.659 | 0.362 | 0.559 | 0.215 | 0.307
CC(=O)c1c(C)c2cnc(Nc3ccc(N4CCNCC4)cn3)nc2n(C2CCCC2)c1=O [Palbociclib] + CC1(C)CCC(CN2CCN(c3ccc(C(=O)NS(=O)(=O)c4ccc(NCC5CCOCC5)c([N+](=O)[O-])c4)c(Oc4cnc5[nH]ccc5c4)c3)CC2)=C(c2ccc(Cl)cc2)C1 [Venetoclax] (first compound max 10 µM, 7x7, partner max 1 µM) | 0.431 | 0.331 | 0.232 | 0.237 | 0.146 | 0.538 | 0.709 | 0.823 | 0.537 | 0.922 | 0.223 |  | 0.866 | 0.66 | 0.215 | 0.43 | 0.398 | 0.348 | 0.135 | 0.101
Cn1cnc2c(F)c(Nc3ccc(Br)cc3Cl)c(C(=O)NOCCO)cc21 [Selumetinib] + CCN(CCO)CCCOc1ccc2c(Nc3cc(CC(=O)Nc4cccc(F)c4)[nH]n3)ncnc2c1 [AZD2811] (first compound max 10 µM, 7x7, partner max 1 µM) | 0.846 | 0.257 | 0.15 | 0.361 | 0.417 | 0.417 | 1 | 0.703 | 0.336 | 0.902 | 0.284 |  | 0.835 | 0.867 | 0.132 | 0.878 | 0.726 | 0.349 | 0.664 | 0.111
NC1(C(=O)N[C@@H](CCO)c2ccc(Cl)cc2)CCN(c2ncnc3[nH]ccc23)CC1 [Capivasertib] + C[C@@H]1COCCN1C2=NC(=NC(=C2)C3(CC3)[S@](=N)(=O)C)C4=C5C=CNC5=NC=C4 [AZD6738] (first compound max 10 µM, 7x7, partner max 10 µM) | 0.681 | 0.435 | 0.667 | 0.785 | 0.784 | 0.85 | 0.957 | 0.917 | 0.937 | 0.885 | 0.707 |  | 0.936 | 0.927 | 0.635 | 0.668 | 0.82 | 0.962 | 0.311 | 0.469
NC1(C(=O)N[C@@H](CCO)c2ccc(Cl)cc2)CCN(c2ncnc3[nH]ccc23)CC1 [Capivasertib] + CC(=O)c1c(C)c2cnc(Nc3ccc(N4CCNCC4)cn3)nc2n(C2CCCC2)c1=O [Palbociclib] (first compound max 10 µM, 7x7, partner max 10 µM) | 0.675 | 0.226 | 0.46 | 0.48 | 0.398 | 0.655 | 0.732 | 0.728 | 0.701 | 0.477 | 0.538 |  | 0.56 | 0.774 | 0.449 | 0.419 | 0.678 | 0.876 | 0.263 | 0.396
